# Results as given in article PMC9606102, “[^89Zr]Zr-PSMA-617 PET/CT in biochemical recurrence of prostate cancer: first clinical experience from a pilot study including biodistribution and dose estimates” (European Journal of Nuclear Medicine and Molecular Imaging, 2022).
# Assays:
# prostate cancer lesions = test: [^68Ga]Ga-PSMA-11 PET/CT findings in the same patients; assay type: in vivo, human (patients); details: for SUVmax of undetermined finding: 1 h p.i.
# Method: The time interval between both, [^89Zr]Zr-PSMA-617 and [^68Ga]Ga-PSMA-11 PET/CT, was 31 ± 18 days (range 5–49 days), with no treatment performed in between. Prostate-specific antigen (PSA) serum level at time of imaging ranged from 0.43 to 1.92 ng/ml. All patients were initially treated with radical prostatectomy (RP). Initial Gleason score ranged from 7a to 9. Four patients underwent salvage treatments such as androgen-deprivation therapy (ADT), lymphadenectomy (LA) or radiation therapy (RT). Detailed patient characteristics including age, Gleason score, primary therapy, salvage therapies, time from initial diagnosis (ID) of prostate cancer, PSA and PSA doubling time (DT) are presented in Table 1. [^89Zr]Zr-PSMA-617 PET/CT imaging was performed on a compassionate use basis under the German Pharmaceutical Act §13 (2b). The medical indication for the examination and the labeling of the tracer were under the direct responsibility of the applying physician. Patients gave their written consent after being thoroughly informed about the general risks of both radiation exposure and application of a novel PET tracer including possible adverse effects of, e.g., therapeutic PSMA tracers. Furthermore, all patients agreed to the publication of the resulting data in accordance with the Declaration of Helsinki.
# [1] = design: method as in PMID 34326129; details: cited from earlier work
"SUVmax of undetermined finding (prostate cancer lesions; patient no. 2, pelvic tracer uptake, considered as unspecific uptake)","SUVmax of undetermined finding (prostate cancer lesions; patient no. 4, faint uptake in peritoneal lesion)",Molecule,"Findings on [^68Ga]Ga-PSMA-11 PET/CT (prostate cancer lesions; Pt. no 1, PSA 1.92 ng/ml)","Findings on [^68Ga]Ga-PSMA-11 PET/CT (prostate cancer lesions; Pt. no 2, PSA 1.75 ng/ml)","Findings on [^68Ga]Ga-PSMA-11 PET/CT (prostate cancer lesions; Pt. no 3, PSA 0.66 ng/ml)","Findings on [^68Ga]Ga-PSMA-11 PET/CT (prostate cancer lesions; Pt. no 4, PSA 1.77 ng/ml)","Findings on [^68Ga]Ga-PSMA-11 PET/CT (prostate cancer lesions; Pt. no 5, PSA 0.63 ng/ml)","Findings on [^68Ga]Ga-PSMA-11 PET/CT (prostate cancer lesions; Pt. no 6, PSA 0.43 ng/ml)","Findings on [^68Ga]Ga-PSMA-11 PET/CT (prostate cancer lesions; Pt. no 7, PSA 0.68 ng/ml)",Effective dose [1]
4.47,2.06,O=C([O-])CN(CCN(CC(=O)[O-])Cc1cc(CCC(=O)NCCCCCC(=O)NCCCC[C@H](NC(=O)N[C@@H](CCC(=O)O)C(=O)O)C(=O)O)ccc1[O-])Cc1cc(CCC(=O)O)ccc1[O-].[68Ga+3].[OH3+] [[^68Ga]Ga-PSMA-11],No suspicious findings,1 × LNM + undetermined finding (suspicion of right iliac LNM),No suspicious findings,Undetermined finding (suspicion of peritoneal metastasis),No suspicious findings,Undetermined finding (suspicion of local recurrence in seminal vesicle bed),No suspicious findings,
,,[^89Zr]Zr-PSMA-DFO,,,,,,,,0.15 ± 0.04 mSv/MBq
